Here are results for two molecules from patent US20240374587A1, “MEDICINE FOR PREVENTION AND TREATMENT OF DISEASES LINKED TO ANTI-OBESITY ACTIVITY” (Shionogi & Co., Ltd., priority 2021, published 2024).

One assay addresses human MGAT2 (Homo sapiens (Human), UniProt Q3SYC2). In words: Measurement of human MGAT2 inhibitory activity. Format: biochemical. As to conditions: concentration exhibiting 50% enzyme inhibition. On the procedure: Solutions of the compounds of the present invention in DMSO were each aliquoted into 0.2·μL portions in a 384-well polystyrene microplate produced by Corning Incorporated, and 5 μL of an enzyme solution prepared with an assay buffer (100 mmol/L phosphate buffer (pH 7.4) containing 2 mmol/L DTT) and 5 μL of a substrate solution (100 mmol/L phosphate buffer (pH 7.4), 30 μmol/L 2-Oleoylglycerol, 10 μmol/L Oleoyl-CoA) were added thereto, and the resultant was stirred and centrifuged, and incubated in a moist chamber at room temperature for 1 hour. After enzymatic reaction, 50 μL of a quenching solution (containing 0.2 μmol/L Diolein-d5, 0.4% formic acid, and 50% isopropanol) containing Internal Standard (IS) was added to terminate the reaction, and the resultant was sealed in a plate produced by Shimadzu GLC Ltd., and then stirred and centrifuged, and measurement was performed by using an electrospray ionization method with a RapidFire360 and Agilent 6550 Q-TOF mass spectrometer. Diolein as a reaction product (P) of 2-Oleoylglycerol as the substrate and an ammonium adduct ion of the IS were detected, and the peak intensity ratio, P/IS, was calculated from the peak heights to evaluate the inhibitory activity. Inhibitory activities with/without addition of enzyme were defined as Control (+)/Control (−), respectively, and the respective % inhibitions were defined as 0% inhibition and 100% inhibition. The inhibitory activity was calculated from the formula below with TIBCO Spotfire (produced by TIBCO Software Inc.) with the peak intensity ratio, P/IS, at the time of addition of the compound of the present invention being as Sample: […]

Another assay has as its system C57BL/6j mice (DIO mice). Briefly: Anti-obesity effect test in DIO mice (body weight, food consumption). The assay is classed as in vivo. More on the design: concentration or dose not given beside the values. As to conditions: for Rate of decrease in body weight relative to control group: at final administration (Day 0 to Day 35, once a day). On the procedure: The anti-obesity effect of the compound and/or agent according to the present invention was examined by using C57BL/6j mice (DIO mice) provided with a high-fat diet (TestDiet; 58Y1).
Five-week-old male C57BL/6j mice (CLEA Japan. Inc.) were purchased, and grown with feeding of a high-fat diet under 12-hour light-dark cycles for 4 weeks to produce DIO mice. A medium (0.5% HPMC and physiological saline) was administered once a day from 3 weeks before administration of the compound. Randomization was performed for grouping (n=9 to 10) on the basis of body weight and change in food consumption during the period of administration for conditioning. From Day 0 to Day 35, gavage of vehicle (0.5% HPMC and physiological saline) (hereinafter, Control group), gavage of Compound (A) according to the present invention (hereinafter, (A)-administration group), subcutaneous administration of GLP-1 formulation (liraglutide or semaglutide) as Compound (B) according to the present invention (hereinafter, (B)-administration group), or both (hereinafter, the combined administration group) were performed once a day. The GLP-1 formulation was formulated in an increasing dose, and liraglutide and semaglutide were administered at 4 to 20 μg/kg and:3 to 15 μg/kg, respectively, once a day. During the administration period, daily body weight measurement and food consumption measurement once a week were performed.

Where [1] appears, read: 1st week of administration, liraglutide study.
[2] abbreviates: 2nd week of administration, liraglutide study.
The mark [3] stands for this setting: 3rd week of administration, liraglutide study.
The mark [4] stands for this setting: 4th week of administration, liraglutide study.
Where [5] appears, read: 5th week of administration, liraglutide study.

Each structure is given as a SMILES string.

Sequence of human MGAT2 (Q3SYC2 whole entry): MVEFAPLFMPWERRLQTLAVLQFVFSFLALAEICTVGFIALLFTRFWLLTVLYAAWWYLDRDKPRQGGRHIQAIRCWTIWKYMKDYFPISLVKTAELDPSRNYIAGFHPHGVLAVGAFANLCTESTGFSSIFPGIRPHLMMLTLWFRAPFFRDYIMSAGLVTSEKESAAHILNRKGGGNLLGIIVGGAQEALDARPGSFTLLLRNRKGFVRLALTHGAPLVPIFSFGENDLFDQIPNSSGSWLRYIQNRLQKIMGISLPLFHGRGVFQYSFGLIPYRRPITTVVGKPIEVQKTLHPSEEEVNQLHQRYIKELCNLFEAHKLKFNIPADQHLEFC

`CS(=O)(=O)CC(=O)Nc1c2c(nn1CCCOC(F)(F)F)C[C@@]1(CCOc3cc(OCC(F)(F)F)ccc31)NC2=O` [II-121]: half-maximal inhibition at human MGAT2 (IC50) was put at 2.91 nM. The “Rate of decrease in food consumption relative to control group” value with C57BL/6j mice (DIO mice) (setting [1]) is reported as 18.9%; in the assay on C57BL/6j mice (DIO mice) (1st week of administration, semaglutide study), 15.7%; in the assay on C57BL/6j mice (DIO mice) (setting [2]), 12.7%; with C57BL/6j mice (DIO mice) (2nd week of administration, semaglutide study) it was 10.5%; in the assay on C57BL/6j mice (DIO mice) (setting [3]), 9.9%; in the assay on C57BL/6j mice (DIO mice) (3rd week of administration, semaglutide study), 7.3%. Moreover, the “Rate of decrease in food consumption relative to control group” value amounted to 8.5% with C57BL/6j mice (DIO mice) (setting [4]); 3.9% with C57BL/6j mice (DIO mice) (4th week of administration, semaglutide study); 7.5% in the assay with C57BL/6j mice (DIO mice) (setting [5]); 1.6% in the assay on C57BL/6j mice (DIO mice) (5th week of administration, semaglutide study). Further, the “Rate of decrease in body weight relative to control group” value with C57BL/6j mice (DIO mice) (liraglutide study (FIG. 1)) came to 10.0%; in the assay on C57BL/6j mice (DIO mice) (semaglutide study (FIG. 2)) it was 5.5%.
With `CCCCCCCCCCCCCCCC(=O)N[C@@H](CCC(=O)NCCCC[C@H](NC(=O)[C@H](C)NC(=O)[C@H](C)NC(=O)[C@H](CCC(N)=O)NC(=O)CNC(=O)[C@H](CCC(=O)O)NC(=O)[C@H](CC(C)C)NC(=O)[C@H](Cc1ccc(O)cc1)NC(=O)[C@H](CO)NC(=O)[C@H](CO)NC(=O)[C@@H](NC(=O)[C@H](CC(=O)O)NC(=O)[C@H](CO)NC(=O)[C@@H](NC(=O)[C@H](Cc1ccccc1)NC(=O)[C@@H](NC(=O)CNC(=O)[C@H](CCC(=O)O)NC(=O)[C@H](C)NC(=O)[C@@H](N)Cc1cnc[nH]1)[C@@H](C)O)[C@@H](C)O)C(C)C)C(=O)N[C@@H](CCC(=O)O)C(=O)N[C@@H](Cc1ccccc1)C(=O)N[C@H](C(=O)N[C@@H](C)C(=O)N[C@@H](Cc1c[nH]c2ccccc12)C(=O)N[C@@H](CC(C)C)C(=O)N[C@H](C(=O)N[C@@H](CCCNC(=N)N)C(=O)NCC(=O)N[C@@H](CCCNC(=N)N)C(=O)NCC(=O)O)C(C)C)[C@@H](C)CC)C(=O)O` [Liraglutide, liraglutide, reference compound], the “Rate of decrease in food consumption relative to control group” value in the assay on C57BL/6j mice (DIO mice) (setting [1]) came to 4.6%; with C57BL/6j mice (DIO mice) (setting [2]), 9.4%; in the assay on C57BL/6j mice (DIO mice) (setting [3]) it was 3.1%; in the assay with C57BL/6j mice (DIO mice) (setting [4]), 2.4%; in the assay with C57BL/6j mice (DIO mice) (setting [5]) it was 1.5%. For the same molecule, the “Rate of decrease in body weight relative to control group” value in the assay on C57BL/6j mice (DIO mice) (liraglutide study (FIG. 1)) worked out at 4.2%.

The term IC50 denotes the concentration at which inhibition is half-maximal.
